# According to patent US8461336B2, “Boron-containing small molecules” (Anacor Pharmaceuticals, Inc., priority 2008, dated 2013):
# Counter-ions that a name gives are not always drawn.
# How the values were obtained:
# ROCK1 = biological target: T1, ROCK1 (Homo sapiens, UniProt Q13464); assay: Kinase assay ROCK1 ([gamma-33P]ATP, S6 kinase peptide substrate); type: biochemical; conditions: 20 nM recombinant human ROCK1 catalytic domain, room temperature
# T1 construct: Catalytic Domain (amino acids 1-535); GST; purchased Reaction Biology Corp., Malvern, Pa; host or cells: insect cells
# Method: (§1) The kinase assays were performed at room temperature using 20 nM ROCK1 or ROCK2 enzyme and 20 uM peptide substrate, [gamma-^33P]ATP, and drug concentration were varied. The ROCK1 enzyme is recombinant human protein, Catalytic Domain (amino acids 1-535) (Reaction Biology Corp., Malvern, Pa.), GST-tagged, expressed in insect cells. MW=[…]. The ROCK2 enzyme is recombinant human protein (amino acids 11-552), N-terminal histidine-tagged, expressed in insect cells, MW=63.3 kDa (Reaction Biology Corp., Malvern, Pa.). The substrate was a peptide derived from S6 kinase peptide for both ROCK1 & 2 assays; [[…]], Mw=3630 Da (Reaction Biology Corp., Malvern, Pa.). The reaction buffer contained 20 mM HEPES-HCl, pH 7.5, 10 mM MgCl2, 1 mM EGTA, 0.02% Brij35, 0.1 mM Na3VO4, 0.02 mg/ml BSA, 2 mM DTT, and 1% DMSO. Enzyme/substrate/drug mixture were added and incubated for 20 min to ensure compound was equilibrated and bound to the enzyme. Then concentrations of ATP were added to initiate the reaction. The activity was monitored by filter plate capture of the radioactive peptide using ion exchange filtration (P81, Whatmann) and washed extensively. The reactions were monitored every 5-15 min to obtain progress curve with time course. At each time point, radioisotope signal (“P) was converted into “uM phosphate transferred to substrate”, and was plotted against time. The initial linear slope of progress curve was obtained by linear regression. The slopes (or velocity; uM/min) were then plotted against ATP concentrations for Michaelis-Menten plot, and subsequent Lineweaver-Burk plot (double-reciprocal plot) and secondary plot, using GraphPad Prism software.
# ROCK2 = biological target: T2, ROCK2 (Homo sapiens, UniProt O75116); assay: Kinase assay ROCK2 ([gamma-33P]ATP, S6 kinase peptide substrate); type: biochemical; conditions: 20 nM recombinant human ROCK2, room temperature
# T2 construct: recombinant human protein (amino acids 11-552); His (N); purchased Reaction Biology Corp., Malvern, Pa; host or cells: insect cells
# Method: as §1
# TNF-α = assay: Cytokine assay, LPS-induced TNF-α in human PBMC; type: cell-based; conditions: 1 μg/mL LPS, supernatant at 24 hours
# Method: The ability of the compounds described herein to inhibit pro-inflammatory cytokines or phosphodiesterases were tested.
# Frozen human peripheral blood mononucleocytes (PBMC) were thawed and centrifuged. Cryopreservation media was aspirated off of the cell pellet, and the cells were resuspended in fresh culture media (CM) comprising RPMI 1640 and 10% FBS in 96 well plates. Test article was dissolved in DMSO to form a 10 mM sample (DMSO, 100%). The 10 mM samples were diluted to 100 μM in CM (DMSO, 1%), then further diluted to 10, 1, 0.1, 0.01 μM in 200 μL of CM (n=3). […] IL-23 was assayed using a commercial ELISA kit (R&D Systems).
# K-ATP channel = conditions: example given in the text for K-ATP channel modulation; cited from earlier work
# T2 sequence (O75116 11-552): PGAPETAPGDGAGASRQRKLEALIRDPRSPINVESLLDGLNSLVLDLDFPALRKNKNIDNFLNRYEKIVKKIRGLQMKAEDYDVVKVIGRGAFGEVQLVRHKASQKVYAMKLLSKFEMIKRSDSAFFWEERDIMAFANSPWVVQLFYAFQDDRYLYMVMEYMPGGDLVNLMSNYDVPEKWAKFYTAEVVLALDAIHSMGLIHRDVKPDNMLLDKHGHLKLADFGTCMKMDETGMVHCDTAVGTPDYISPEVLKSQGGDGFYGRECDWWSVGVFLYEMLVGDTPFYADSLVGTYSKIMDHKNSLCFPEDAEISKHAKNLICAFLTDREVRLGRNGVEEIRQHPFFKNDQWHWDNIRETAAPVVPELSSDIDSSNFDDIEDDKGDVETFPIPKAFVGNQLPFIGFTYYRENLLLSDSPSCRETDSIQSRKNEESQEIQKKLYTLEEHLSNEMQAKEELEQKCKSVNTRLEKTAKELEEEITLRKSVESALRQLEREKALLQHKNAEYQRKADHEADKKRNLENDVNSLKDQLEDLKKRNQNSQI
# T1 sequence (Q13464 1-535): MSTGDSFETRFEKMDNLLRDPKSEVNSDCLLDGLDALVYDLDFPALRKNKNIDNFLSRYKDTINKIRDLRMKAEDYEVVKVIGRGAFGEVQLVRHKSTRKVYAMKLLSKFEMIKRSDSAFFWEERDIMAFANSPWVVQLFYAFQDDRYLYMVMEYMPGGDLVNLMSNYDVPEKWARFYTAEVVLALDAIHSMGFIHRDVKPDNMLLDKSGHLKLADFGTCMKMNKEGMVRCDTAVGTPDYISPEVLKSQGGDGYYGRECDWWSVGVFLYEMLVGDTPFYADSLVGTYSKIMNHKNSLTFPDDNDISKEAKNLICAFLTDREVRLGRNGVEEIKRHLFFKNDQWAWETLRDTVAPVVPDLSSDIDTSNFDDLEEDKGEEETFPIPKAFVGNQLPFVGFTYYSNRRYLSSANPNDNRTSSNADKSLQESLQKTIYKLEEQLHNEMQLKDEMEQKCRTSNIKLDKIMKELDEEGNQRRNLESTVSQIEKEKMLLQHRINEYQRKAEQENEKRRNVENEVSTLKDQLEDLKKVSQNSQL
IC50 (ROCK1),IC50 (ROCK2),melting point,Compound,IC50 (TNF-α),pKi (K-ATP channel)
8.1 µM,3.1 µM,–,"NCc1ccc(Oc2ccc3c(c2)B(O)OC3)cc1 [T, (4-(1-hydroxy-1,3-dihydrobenzo[c][1,2]oxaborol-6-yloxy)phenyl)methanaminium chloride]",–,–
–,–,–,CC1=NS(=O)(=O)c2cc(Cl)ccc2N1 [diazoxide],–,3.8
–,–,> 230 °C,"NCc1ccc(Oc2ccc3c(c2)B(O)OC3)cc1 (as salt: chloride) [(4-(1-hydroxy-1,3-dihydrobenzo[c][1,2]oxaborol-6-yloxy)phenyl)methanaminium chloride]",–,–
69.5 µM,40.2 µM,–,"NCc1cccc(Oc2ccc3c(c2)B(O)OC3)c1 [U, (3-(1-hydroxy-1,3-dihydrobenzo[c][1,2]oxaborol-6-yloxy)phenyl)methanaminium chloride]",–,–
18.1 µM,9.09 µM,–,"N#Cc1ccc(Oc2ccc3c(c2)COB3O)nc1OC1CCCC1 [Z, 2-Cyclopentyloxy-6-(1-hydroxy-1,3-dihydro-benzo[c][1,2]oxaborol-5-yloxy)-nicotinonitrile]",–,–
25.1 µM,10.1 µM,–,"NCc1ccc(Oc2ccc3c(c2)COB3O)cc1 [V, (4-(1-hydroxy-1,3-dihydrobenzo[c][1,2]oxaborol-5-yloxy)phenyl)methanaminium chloride]",–,–
4.75 µM,2.11 µM,–,NCc1ccc(Oc2ccc3c(c2)B(O)OC3)c(Cl)c1 [X],–,–

Compound,IC50 (ROCK1),IC50 (ROCK2),melting point,IC50 (TNF-α),pKi (K-ATP channel)
NCc1ccc(Oc2ccc3c(c2)B(O)OC3)c(F)c1 [W],2.44 µM,0.86 µM,–,0.019 µM,–
